The experiment addresses human PAD4 (hPAD4) (Homo sapiens, UniProt Q9UM07). Nature of the experiment: RFMS human PAD4 functional assay (rapid-fire mass spectrum). In kind it is biochemical. As to conditions: 5 nM hPAD4 enzyme, 250 μM BAEE, 50 μM Calcium; 30 min preincubation, 90 min reaction at 37° C. Summed up:
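PAD4 (10 nM) preincubated 30 min with compound (top final 50 μM), then BAEE substrate added in pH 7.5 HEPES buffer with DTT, 50 μM calcium, TPEN; 90 min at 37° C. After TCA quench, citrulline derivatized with phenyl glyoxal (4 mM final, 30 min, 37° C) and quantified by RapidFire MS against internal standard.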

Each structure is given as a SMILES string.

Chain of human PAD4 (hPAD4) (Q9UM07 whole entry): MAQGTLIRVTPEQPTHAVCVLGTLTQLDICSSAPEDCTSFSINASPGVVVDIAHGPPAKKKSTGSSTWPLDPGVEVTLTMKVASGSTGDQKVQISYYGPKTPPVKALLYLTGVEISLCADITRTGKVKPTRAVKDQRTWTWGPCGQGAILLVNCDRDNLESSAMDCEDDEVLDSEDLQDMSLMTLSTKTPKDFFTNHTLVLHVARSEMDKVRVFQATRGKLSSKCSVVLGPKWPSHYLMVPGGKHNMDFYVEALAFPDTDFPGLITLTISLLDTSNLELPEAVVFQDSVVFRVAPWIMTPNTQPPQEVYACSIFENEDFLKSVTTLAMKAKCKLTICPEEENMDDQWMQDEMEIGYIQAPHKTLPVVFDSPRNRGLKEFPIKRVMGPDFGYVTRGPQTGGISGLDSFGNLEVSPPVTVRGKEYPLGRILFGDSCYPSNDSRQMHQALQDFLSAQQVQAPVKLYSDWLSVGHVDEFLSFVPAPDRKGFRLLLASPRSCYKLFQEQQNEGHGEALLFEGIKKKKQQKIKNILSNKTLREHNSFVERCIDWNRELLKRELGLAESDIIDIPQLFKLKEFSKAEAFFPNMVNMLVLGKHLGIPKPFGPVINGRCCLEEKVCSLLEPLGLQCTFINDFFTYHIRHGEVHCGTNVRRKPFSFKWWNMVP

One may read the IC50 as the concentration that gives 50% inhibition. As for `COC(=O)c1cccc(-n2cc(Cn3c(-c4cc5cccnc5n4CC4CC4)nc4cc(C(=O)N5C[C@H](N)C[C@@H](F)C5)cc(OC)c43)cn2)n1` [Example 364, methyl 6-[4-({5-[(3R,5R)-3-amino-5-fluoropipendine-1-carbonyl]-2-[1-(cyclopropylmethyl)-1H-pyrrolo[2,3-b]pyridin-2-yl]-7-methoxy-1H-1,3-benzodiazol-1-yl}methyl)-1H-pyrazol-1-yl]pyridine-2-carboxylate], the IC50 was 26 nM.
As to `COc1cc(C(=O)N2C[C@H]3CC[C@@H]2[C@@H]3N)cc2nc(-c3cc4ccccc4n3CC3CC3)n(CC3CN(C(=O)c4ccc(Cl)cc4)C3)c12` [Example 166, (1R,4R,7R)-2-(1-{[1-(4-chlorobenzoyl)azetidin-3-yl]methyl}-2-[1-(cyclopropylmethyl)-1H-indol-2-yl]-7-methoxy-1H-1,3-benzodiazole-5-carbonyl)-2-azabicyclo[2.2.1]heptan-7-amine], the IC50 was 31 nM.
For the compound `COc1cc(C(=O)N2C[C@H]3CC[C@@H]2[C@@H]3N)cc2nc(-c3cc4ccccc4n3CC3CC3)n(CC3CN(C(=O)c4ccccn4)C3)c12` [Example 167, (1R,4R,7R)-2-{2-[1-(cyclopropylmethyl)-1H-indol-2-yl]-7-methoxy-1-{[1-(pyridine-2-carbonyl)azetidin-3-yl]methyl}-1H-1,3-benzodiazole-5-carbonyl}-2-azabicyclo[2.2.1]heptan-7-amine], the IC50 was 31 nM.
On to `COc1cc(C(=O)N2CC3CCC2[C@@H]3N)cc2nc(-c3cc4cccnc4n3CC3CC3)n(Cc3cnn(-c4cccnc4)c3)c12` (stereo partly drawn) [Example 395, (7R)-2-{2-[1-(cyclopropylmethyl)-1H-pyrrolo[2,3-b]pyridin-2-yl]-7-methoxy-1-{[1-(pyridin-3-yl)-1H-pyrazol-4-yl]methyl}-1H-1,3-benzodiazole-5-carbonyl}-2-azabicyclo[2.2.1]heptan-7-amine], for which the IC50 stood at 50 nM.
Turning to `COc1cc(C(=O)N2C[C@H]3CC[C@@H]2[C@@H]3N)cc2nc(-c3cc4ccccc4n3C)n(CC3CN(C(=O)c4ccccc4)C3)c12` [Example 181, (1R,4R,7R)-2-{1-[(1-benzoylazetidin-3-yl)methyl]-7-methoxy-2-(1-methyl-1H-indol-2-yl)-1H-1,3-benzodiazole-5-carbonyl}-2-azabicyclo[2.2.1]heptan-7-amine], the IC50 came to 101 nM.
As to `COc1cc(C(=O)N2C[C@H](N)C[C@@H](F)C2)cc2nc(-c3cc4cccnc4n3CC3CC3)n(Cc3cnn(-c4cccc(O)n4)c3)c12` [Example 407, 6-[4-({5-[(3R,5R)-3-amino-5-fluoropipendine-1-carbonyl]-2-[1-(cyelopropylmethyl)-1H-pyrrolo[2,3-b]pyridin-2-yl]-7-methoxy-1H-1,3-benzodiazol-1-yl}methyl)-1H-pyrazol-1-yl]pyridin-2-ol], the IC50 was 72 nM.
Consider `COc1cc(C(=O)N2C[C@H]3CC[C@@H]2[C@@H]3N)cc2nc(-c3cc4ccccc4n3CC3CC3)n(CC3CN(c4cncnc4C#N)C3)c12` [Example 11, 5-[3-({5-[(1R,4R,7R)-7-amino-2-azabicyclo[2.2.1]heptane-2-carbonyl]-2-[1-(cyclopropylmethyl)-1H-indol-2-yl]-7-methoxy-1H-1,3-benzodiazol-1-yl}methyl)azetidin-1-yl]pyrimidine-4-carbonitrile], for which the IC50 stood at 37 nM.
To `COc1cc(C(=O)N2C[C@H](N)C[C@@H](F)C2)cc2nc(-c3cc4ccccc4n3CC3CC3)n(CC3CN(C(=O)c4ccccc4)C3)c12` [Example 160, (3R,5R)-1-{1-[(1-benzoylazetidin-3-yl)methyl]-2-[1-(cyclopropylmethyl)-1H-indol-2-yl]-7-methoxy-1H-1,3-benzodiazole-5-carbonyl}-5-fluoropiperidin-3-amine] belongs 25 nM; to `COc1cc(C(=O)N2C[C@H]3CC[C@@H]2[C@@H]3N)cc2nc(-c3cc4cccnc4n3C)n(CC3CN(c4cncnc4C#N)C3)c12` [Example 78, 5-[3-({5-[(1R,4R,7R)-7-amino-2-azabicyclo[2.2.1]heptane-2-carbonyl]-7-methoxy-2-{1-methyl-1H-pyrrolo[2,3-b]pyridin-2-yl}-1H-1,3-benzodiazol-1-yl}methyl)azetidin-1-yl]pyrimidine-4-carbonitrile], 373 nM.
Consider `COc1cc(C(=O)N2C[C@H]3CC[C@@H]2[C@@H]3N)cc2nc(-c3cc4cccnc4n3CC3CC3)n(CC3CN(c4cncc(C#N)c4)C3)c12` [Example 7, 5-[3-({5-[(1R,4R,7R)-7-amino-2-azabicyclo[2.2.1]heptane-2-carbonyl]-2-[1-(cyclopropylmethyl)-1H-pyrrolo[2,3-b]pyridin-2-yl]-7-methoxy-1H-1,3-benzodiazol-1-yl}methyl)azetidin-1-yl]pyridine-3-carbonitrile], for which the IC50 came out at 94 nM.
As to `COc1ccc2cc(-c3nc4cc(C(=O)N5C[C@H]6CC[C@@H]5[C@@H]6N)cc(OC)c4n3CC3CN(c4cccnc4C#N)C3)n(CC3CC3)c2n1` [Example 35, 3-[3-({5-[(1R,4R,7R)-7-amino-2-azabicyclo[2.2.1]heptane-2-carbonyl]-2-[1-(cyclopropylmethyl)-6-methoxy-1H-pyrrolo[2,3-b]pyridin-2-yl]-7-methoxy-1H-1,3-benzodiazol-1-yl}methyl)azetidin-1-yl]pyridine-2-carbonitrile], the IC50 is 90 nM.
To `COc1cc(C(=O)N2CC3CCC2[C@@H]3N)cc2nc(-c3cc4ccccc4n3CC3CC3)n(Cc3cnn(CC#N)c3)c12` (stereo partly drawn) [Example 405, 2-[4-({5-[(7R)-7-amino-2-azabicyclo[2.2.1]heptane-2-carbonyl]-2-[1-(cyclopropylmethyl)-1H-indol-2-yl]-7-methoxy-1H-1,3-benzodiazol-1-yl}methyl)-1H-pyrazol-1-yl]acetonitrile] belongs 66 nM.
`COc1cc(C(=O)N2C[C@H]3CC[C@@H]2[C@@H]3N)cc2nc(-c3cc4cccnc4n3CC3CC3)n(CC3CN(c4ccnc(C#N)n4)C3)c12` [Example 5, 4-[3-({5-[(1R,4R,7R)-7-amino-2-azabicyclo[2.2.1]heptane-2-carbonyl]-2-[1-(cyclopropylmethyl)-1H-pyrrolo[2,3-b]pyridin-2-yl]-7-methoxy-1H-1,3-benzodiazol-1-yl}methyl)azetidin-1-yl]pyrimidine-2-carbonitrile]: the IC50 amounted to 51 nM.
The same measure for `COc1cc(C(=O)N2C[C@H]3CC[C@@H]2[C@@H]3N)cc2nc(-c3cc4cccnc4n3CC3CC3)n(CC3CN(c4ccccc4)C3)c12` [Example 50, (1R,4R,7R)-2-{2-[1-(cyclopropylmethyl)-1H-pyrrolo[2,3-b]pyridin-2-yl]-7-methoxy-1-[(1-phenylazetidin-3-yl)methyl]-1H-1,3-benzodiazole-5-carbonyl}-2-azabicyclo[2.2.1]heptan-7-amine]: 141 nM; for `COc1cc(C(=O)N2CC3CCC2[C@@H]3N)cc2nc(-c3cc4ccccc4n3CC3CC3)n(CC3CC(=O)N(C)C3)c12` (stereo partly drawn) [Example 474, 4-({5-[(7R)-7-amino-2-azabicyclo[2.2.1]heptane-2-carbonyl]-2-[1-(cyclopropylmethyl)-1H-indol-2-yl]-7-methoxy-1H-1,3-benzodiazol-1-yl}methyl)-1-methylpyrrolidin-2-one]: 149 nM.
With `COc1cc(C(=O)N2C[C@H]3CC[C@@H]2[C@@H]3N)cc2nc(-c3cc4cccnc4n3CC3CC3)n(CC3CN(C(=O)c4ccncn4)C3)c12` [Example 111, (1R,4R,7R)-2-{2-[1-(cyclopropylmethyl)-1H-pyrrolo[2,3-b]pyridin-2-yl]-7-methoxy-1-{[1-(pyrimidine-4-carbonyl)azetidin-3-yl]methyl}-1H-1,3-benzodiazole-5-carbonyl}-2-azabicyclo[2.2.1]heptan-7-amine], the IC50 was 51 nM.
Turning to `COc1cc(C(=O)N2C[C@H](N)C[C@@H](F)C2)cc2nc(-c3cc4ccccc4n3CC3CC3)n(CC3CN(C(=O)c4cccc(F)c4)C3)c12` [Example 157, (3R,5R)-1-{2-[1-(cyclopropylmethyl)-1H-indol-2-yl]-1-{[1-(3-fluorobenzoyl)azetidin-3-yl]methyl}-7-methoxy-1H-1,3-benzodiazol-5-carbonyl}-5-fluoropiperidin-3-amine], the IC50 was 23 nM.
With `COc1cc(C(=O)N2CC3CCC2[C@@H]3N)cc2nc(-c3cc4cccnc4n3CC3CC3)n(Cc3cnn(-c4ccncc4)c3)c12` (stereo partly drawn) [Example 409, (7R)-2-{2-[1-(cyclopropylmethyl)-1H-pyrrolo[2,3-b]pyridin-2-yl]-7-methoxy-1-{[1-(pyridin-4-yl)-1H-pyrazol-4-yl]methyl}-1H-1,3-benzodiazole-5-carbonyl)-2-azabicyclo[2.2.1]heptan-7-amine], the half-inhibitory concentration (IC50) was 82 nM.
Consider `COc1cc(C(=O)N2C[C@H](N)C[C@@H](F)C2)cc2nc(-c3cc4cccnc4n3CC3CC3)n(Cc3cnn(C)c3C)c12` [Example 504, (3R,5R)-1-{2-[1-(cyclopropylmethyl)-1H-pyrrolo[2,3-b]pyridin-2-yl]-l-[(1,5-dimethyl-1H-pyrazol-4-yl)methyl]-7-methoxy-1H-1,3-benzodiazole-5-carbonyl}-5-fluoropiperidin-3-amine], for which the IC50 turned out to be 158 nM.
To `COc1cc(C(=O)N2C[C@H]3CC[C@@H]2[C@@H]3N)cc2nc(-c3cc4cccnc4n3CC3CC3)n(C3CN(C(=O)c4ccncc4)C3)c12` [Example 189, (1R,4R,7R)-2-{2-[1-(cyclopropylmethyl)-1H-pyrrolo[2,3-b]pyridin-2-yl]-7-methoxy-1-[1-(pyridine-4-carbonyl)azetidin-3-yl]-1H-1,3-benzodiazol-5-carbonyl}-2-azabicyclo[2.2.1]heptan-7-amine] belongs 583 nM; to `COc1cc(C(=O)N2CC3CCC2[C@@H]3N)cc2nc(-c3cc4cccnc4n3CC3CC3)n(C3CCN(c4ccnc(C#N)n4)CC3)c12` (stereo partly drawn) [Example 237, 4-(4-{5-[(1R,4R,7R)-7-amino-2-azabicyclo[2.2.1]heptane-2-carbonyl]-2-[1-(cyclopropylmethyl)-1H-pyrrolo[2,3-b]pyridin-2-yl]-7-methoxy-1H-1,3-benzodiazol-1-yl}piperidin-l-yl)pyrimidine-2-carbonitrile], 540 nM.

The record behind these values is US12692254B2, “Benzimidazole inhibitors of PAD enzymes” (BRISTOL-MYERS SQUIBB COMPANY, priority 2018, dated 2026).
